From ChEMBL document CHEMBL1821724, “Synthesis and in vitro evaluation of derivatives of the β₁-adrenergic receptor antagonist HX-CH 44” (Bioorg Med Chem Lett, 2011)
pKi: −log10 of the molar value.

Assays:
[1] = target: Beta-1 adrenergic receptor (Homo sapiens, UniProt P08588); experiment: Displacement of [125I]-Iodopindolol from beta1-adrenergic receptor after 1.5 hrs by liquid scintillation counting
[2] = target: Beta-2 adrenergic receptor (Homo sapiens, UniProt P07550); experiment: Displacement of [125I]-Iodopindolol from beta2-adrenergic receptor after 1.5 hrs by liquid scintillation counting
Beta-2 adrenergic receptor, sequence (P07550 whole entry): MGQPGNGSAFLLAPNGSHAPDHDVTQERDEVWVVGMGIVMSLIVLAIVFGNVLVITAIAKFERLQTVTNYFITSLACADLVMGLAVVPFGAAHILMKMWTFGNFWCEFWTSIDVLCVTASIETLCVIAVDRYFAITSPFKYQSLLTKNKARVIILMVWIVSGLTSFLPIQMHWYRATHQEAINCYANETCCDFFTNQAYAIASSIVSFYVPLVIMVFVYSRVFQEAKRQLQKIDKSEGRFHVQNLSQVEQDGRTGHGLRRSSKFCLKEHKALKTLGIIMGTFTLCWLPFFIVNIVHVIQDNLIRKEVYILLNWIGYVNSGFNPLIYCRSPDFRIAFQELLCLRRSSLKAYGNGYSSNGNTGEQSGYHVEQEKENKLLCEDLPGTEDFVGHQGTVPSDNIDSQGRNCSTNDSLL

[3] = target: T1, 5-hydroxytryptamine receptor 1A (Homo sapiens, UniProt P08908); experiment: Displacement of [3H]-8-OH-DPAT from 5HT1A receptor after 1.5 hrs by liquid scintillation counting
T1 sequence (P08908 whole entry): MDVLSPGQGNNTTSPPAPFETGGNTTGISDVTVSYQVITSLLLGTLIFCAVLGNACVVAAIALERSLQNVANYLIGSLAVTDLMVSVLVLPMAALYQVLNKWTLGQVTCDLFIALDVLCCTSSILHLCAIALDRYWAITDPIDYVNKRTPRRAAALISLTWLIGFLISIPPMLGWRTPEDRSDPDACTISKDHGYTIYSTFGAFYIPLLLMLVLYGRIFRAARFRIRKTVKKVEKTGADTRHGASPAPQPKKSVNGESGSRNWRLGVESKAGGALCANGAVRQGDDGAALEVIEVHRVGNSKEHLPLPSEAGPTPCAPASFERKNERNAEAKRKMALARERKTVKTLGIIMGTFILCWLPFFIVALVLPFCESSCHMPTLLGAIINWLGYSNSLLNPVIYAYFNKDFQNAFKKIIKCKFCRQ

[4] = target: Beta-1 adrenergic receptor (Rattus norvegicus, UniProt P18090); experiment: Displacement of [3H]-CGP12177 from beta1-adrenergic receptor in rat heart membranes; format: cell membranes, Membrane
Beta-1 adrenergic receptor (Rattus norvegicus, UniProt P18090), sequence (P18090 whole entry): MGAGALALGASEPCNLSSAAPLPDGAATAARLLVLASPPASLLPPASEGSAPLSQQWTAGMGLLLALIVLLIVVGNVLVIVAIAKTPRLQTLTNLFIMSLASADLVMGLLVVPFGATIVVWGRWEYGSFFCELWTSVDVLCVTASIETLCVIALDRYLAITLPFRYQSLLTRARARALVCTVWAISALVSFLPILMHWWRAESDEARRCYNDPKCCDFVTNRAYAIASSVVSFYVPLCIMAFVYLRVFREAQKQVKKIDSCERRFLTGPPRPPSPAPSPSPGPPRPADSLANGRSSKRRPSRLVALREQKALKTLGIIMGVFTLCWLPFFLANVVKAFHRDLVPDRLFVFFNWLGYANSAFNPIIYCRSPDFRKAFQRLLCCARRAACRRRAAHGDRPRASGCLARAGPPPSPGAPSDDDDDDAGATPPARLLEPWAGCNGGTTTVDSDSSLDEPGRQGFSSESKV

Beta-1 adrenergic receptor (Homo sapiens, UniProt P08588), sequence (P08588 whole entry): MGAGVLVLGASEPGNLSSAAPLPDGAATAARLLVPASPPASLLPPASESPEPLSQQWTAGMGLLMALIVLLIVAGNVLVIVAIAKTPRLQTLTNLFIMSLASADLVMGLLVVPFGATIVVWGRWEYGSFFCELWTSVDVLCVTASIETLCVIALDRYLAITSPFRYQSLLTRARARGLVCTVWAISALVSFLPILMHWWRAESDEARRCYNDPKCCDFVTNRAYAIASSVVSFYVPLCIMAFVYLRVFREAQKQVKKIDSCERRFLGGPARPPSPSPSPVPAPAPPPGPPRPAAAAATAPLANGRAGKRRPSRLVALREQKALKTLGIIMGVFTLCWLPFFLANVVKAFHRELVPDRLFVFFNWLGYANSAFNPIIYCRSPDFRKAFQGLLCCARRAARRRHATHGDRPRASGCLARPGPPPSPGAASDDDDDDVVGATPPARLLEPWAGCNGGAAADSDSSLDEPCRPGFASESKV

pKi [1]	pKi [2]	pKi [3]	pKi [4]	SMILES
5.64	< 5.00	< 5.00	–	COc1ccc2nc(-c3ccc(OCC(O)CNC(C)CF)cc3)n(C)c(=O)c2c1 (mixture of isomers)
5.62	5.11	5.26	–	COc1ccc2nc(-c3ccc(OCC(O)CNC(C)C)cc3)n(C)c(=O)c2c1 (racemic)
5.52	< 5.00	< 5.00	–	COc1ccc2nc(-c3ccc(OC[C@@H](O)CNC(C)CF)cc3)n(C)c(=O)c2c1 (stereo not given in full)
–	–	–	7.11	COc1ccc2nc(-c3ccc(OCC(O)CNC(C)(C)C)cc3)n([11CH3])c(=O)c2c1 (racemic)
